The data set can be described thus: gradient 5% acetonitrile 3 min, to 50% in 2 min, to 85% in 15 min, held 3 min, 100 µL/min. Particulars: column: Zorbax Extend-C18 2.1 x 50 mm; eluents: water / acetonitrile, 0.1% formic acid. The gist of the method:
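Retention times of pure standards were taken from adduct peaks that were selected by computer and manually inspected. Over 3 months, mixtures of ~100 molecules were run by HPLC–quadrupole time-of-flight mass spectrometry in positive and negative ionization mode. The Zorbax Extend-C18 column (2.1 × 50 mm, 1.8 μm) ran at 100 μL/min in water and acetonitrile, each containing 0.1% formic acid, with 40 μL dead volume and 900 μL dwell volume.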
`COc1ccc(C2CC(=O)c3cnc(Nc4nc(C)c5ccc(C)cc5n4)nc3C2)cc1` (stereo not given) registered an RP-LC retention time of 593 s.

In the case of `Cc1ccc(CNC(=O)C2(C)CN(S(C)(=O)=O)CC(=O)N2c2ccc(F)cc2F)cc1` (stereo not given), the RP-LC retention time was found to be 814 s.

`Cc1nc(C)c(C(=O)N2CC(Oc3cccc(-c4nc(-c5ccccc5)no4)c3)C2)s1` returned an RP-LC retention time of 1110 s.

In the case of `COc1ccccc1-c1nc(Cc2noc(-c3ccccc3)n2)c(C)o1`, the RP-LC retention time turned out to be 1040 s.

Take `Cc1ccc(N2CCC(NC(=O)Cc3cccc(F)c3)C2=O)cc1` (stereo not given): the RP-LC retention time is 829 s.

With `Cc1ccc2[nH]cc(CCN3CC(C(=O)NC4CCCCC4)CC3=O)c2c1` (stereo not given), the RP-LC retention time is 819 s.

`COc1ccc(CNC(=O)C2CCN(c3cncnc3N3CCOCC3)CC2)cc1` yielded an RP-LC retention time of 651 s.

For the compound `CCn1nccc1C(=O)Nc1c(-c2cccc(F)c2)nc2sc(N3CCCCC3)nn12`, the RP-LC retention time was 964 s.

Compound `CC(C)Cn1c(=O)c2ccccc2n(Cc2nc(-c3ccccc3)no2)c1=O` had an RP-LC retention time of 1040 s.

`CCc1cccc(C)c1Nc1c(-c2ccc(F)cc2)nc2nc(C)cc(C)n12` came in with an RP-LC retention time of 828 s.

As to `CCOc1ccccc1NC(=O)CN1CCN(Cc2ccc(C)cc2)C(=O)C1=O`, the RP-LC retention time is 848 s.

The compound `O=C(Nc1ccccc1)C1CCCN(C(=O)C2Sc3ccccc3NC2=O)C1` (stereo not given) had an RP-LC retention time of 772 s.

`COc1ccc(NC(=O)c2cccn(C)c2=O)cc1N1CCCC1=O` returned an RP-LC retention time of 618 s.

For `Cc1ccc(Nc2nc(-c3ccc(C)c(C)c3)cs2)nc1`, the RP-LC retention time came out at 859 s.

Consider `CC(C)(C)CC(=O)Nc1cnc(-c2ccc(Cl)cc2)nc1`, for which the RP-LC retention time was 1130 s.

Turning to `CCOc1ccccc1NC(=O)Cc1csc2nc(-c3ccc(OC)c(OC)c3)cn12`, the RP-LC retention time worked out at 793 s.

`CN(C)CCCNC(=O)c1cc(-c2ccc(Cl)cc2)cn1C` showed an RP-LC retention time of 671 s.

In turn, `COc1ccc2c(c1)C1(CCN(C(=O)c3ccccc3OC)C1)C(=O)N2C` (stereo not given) came in with an RP-LC retention time of 725 s.

Turning to `CCOC(=O)c1c(C)n(C)c2ccc(OCC(O)CN3CCCCC3)cc12` (stereo not given), the RP-LC retention time worked out at 643 s.

Consider `Cc1noc(-c2nc(-c3ccc(OC(C)C)cc3)no2)n1`, for which the RP-LC retention time came to 1120 s.

`CCCc1cc(SCc2ccc(C(=O)OC)cc2)ncn1` showed an RP-LC retention time of 992 s.

In turn, `Cc1noc(C)c1-c1ccc(S(=O)(=O)NCCc2ccccc2)cc1` yielded an RP-LC retention time of 957 s.

In turn, `O=C(CSc1ccc(N2CCCC2)nn1)Nc1ccc(Cl)cc1` came in with an RP-LC retention time of 647 s.

For the compound `Cc1nn2c(CNS(=O)(=O)c3ccc(F)cc3F)c(-c3ccccc3)nc2s1`, the RP-LC retention time came out at 867 s.

For `COC(=O)C(C)NC(=O)NCc1cccn1Cc1ccccc1` (stereo not given), the RP-LC retention time was 794 s.

For the compound `Cc1cccc(Oc2nccnc2Sc2ccccc2C(=O)N2CCN(c3ccccn3)CC2)c1`, the RP-LC retention time was 761 s.

In turn, `O=C(Cn1cnc2ccccc2c1=O)N1CCOCC1` returned an RP-LC retention time of 590 s.

Consider `Cc1ccc(-c2ccc(N3CCCC(C(=O)NCCCN4CCOCC4)C3)nn2)cc1` (stereo not given), for which the RP-LC retention time was 571 s.

For the compound `COc1ccc(OC)c(NC(=O)N2CCC(OC3CCN(S(C)(=O)=O)CC3)CC2)c1`, the RP-LC retention time was 751 s.

In turn, `CN(CC(=O)Nc1cccnc1)c1nc2ccccc2s1` returned an RP-LC retention time of 568 s.

Turning to `Cc1ccc(-c2nnc(SCc3cccc(Cl)c3)o2)cc1`, the RP-LC retention time worked out at 1210 s.

`CCOc1ccc(CNC(=O)c2cn3c(n2)COCC3)cc1`: the RP-LC retention time came out at 614 s.

In turn, `O=S(=O)(c1ccc2c(c1)OCCO2)N1CC[C@@H]2COCCN(Cc3cccnc3)[C@@H]2C1` returned an RP-LC retention time of 629 s.

The compound `Cc1nc(Cn2cccc2C(=O)Nc2ccc(C)c(C)c2)no1` gave an RP-LC retention time of 910 s.

Compound `CC(=O)Nc1ccc(-c2noc(C3CCN(C(=O)C4CC4)CC3)n2)cc1` had an RP-LC retention time of 689 s.

In turn, `CC1(C)C(=O)N(CC(=O)Nc2ccc3c(c2)OCO3)c2ccccc21` had an RP-LC retention time of 823 s.

On to `CC(C)S(=O)(=O)c1cc2c(cc1NC(=O)c1c(F)cccc1F)n(C)c(=O)n2C`, for which the RP-LC retention time was 792 s.

As for `Cc1ccc(S(=O)(=O)N2CCC(c3nc(-c4ccccn4)no3)CC2)cc1`, the RP-LC retention time worked out at 916 s.

Turning to `COC(=O)Cn1cnc2c(-c3ccc(Br)cc3)csc2c1=O`, the RP-LC retention time came to 943 s.

As for `CCN1C(=O)COc2cc(-c3noc(C(=O)N4CCN(c5ccccc5)CC4)n3)ccc21`, the RP-LC retention time worked out at 1030 s.

Compound `CCOC(=O)c1c(C)[nH]c(C(=O)N2CCC(CC(=O)N3CCN(c4ccccn4)CC3)CC2)c1C` registered an RP-LC retention time of 619 s.

For `CCn1nnc(NCc2ccc(-c3cccc(Cl)c3)o2)n1`, the RP-LC retention time came out at 1010 s.

Turning to `CCNC(=O)c1nnn(-c2cccc(Cl)c2)c1-c1cccnc1`, the RP-LC retention time is 740 s.

Take `C=CCNC(=O)N1CCCN(C2=NS(=O)(=O)C(c3ccc(Cl)cc3)=C2C)CC1`: the RP-LC retention time came to 761 s.

`O=C(NCCn1c(CCc2ccccc2)nc2cccnc21)c1cccs1`: the RP-LC retention time amounted to 687 s.

Take `Cc1ccc2oc(SCc3noc(CCC(=O)Nc4nc(-c5ccccc5)cs4)n3)nc2c1`: the RP-LC retention time worked out at 1130 s.

Compound `CCC(C)n1c(=O)c2ccccc2n(Cc2nc(-c3cccc(Br)c3)no2)c1=O` (stereo not given) showed an RP-LC retention time of 1290 s.

On to `O=C(NCCCN1CCN(c2ccccc2F)CC1)c1nnc(-c2ccccc2)o1`, for which the RP-LC retention time came to 664 s.

Compound `Cn1ncc2c(N3CCN(c4ccccc4F)CC3)ncnc21` displayed an RP-LC retention time of 858 s.

In the case of `CCn1ccc2sc(C)c(C(=O)NCc3ccc(Cl)cc3)c2c1=O`, the RP-LC retention time turned out to be 891 s.

`COc1ccc2nc(NC(=O)C3CCN(C(=O)C4Sc5ccccc5NC4=O)CC3)sc2c1` (stereo not given) gave an RP-LC retention time of 775 s.

In turn, `Cc1ccc(Sc2nccnc2N2CCCC(C(=O)NCc3ccc(F)cc3)C2)cc1` (stereo not given) yielded an RP-LC retention time of 1100 s.

`Cc1nc(-c2cn(C(C)C)c3ncccc23)sc1C(=O)Nc1ccc2c(c1)OCO2`: the RP-LC retention time came out at 998 s.

`c1ccc(-c2nnc(-c3cccnc3NCc3ccc4c(c3)OCO4)o2)cc1`: the RP-LC retention time is 1160 s.

As for `CSc1ccccc1C(=O)Nc1ccc(CC(=O)NCC(F)(F)F)cc1`, the RP-LC retention time was found to be 738 s.

As to `O=C(c1cn(-c2cc(N3CCCCC3)ncn2)cn1)N1CCCC1`, the RP-LC retention time is 772 s.

`C=CCN(Cc1nc(-c2cccc(C)c2)no1)C(=O)Nc1ccccc1OC` yielded an RP-LC retention time of 1120 s.

For `CSc1cccc(NC(=O)Cn2c(C)cc(-c3nnc(C)o3)c2C)c1`, the RP-LC retention time amounted to 790 s.

Consider `COc1ccc2nc(-c3ccc(NS(=O)(=O)c4ccccc4C(F)(F)F)cc3)cn2n1`, for which the RP-LC retention time worked out at 792 s.

Turning to `CCOC(=O)Cc1csc(NC(=O)C2CCN(C(C)=O)CC2)n1`, the RP-LC retention time came out at 631 s.

Take `Cc1noc(C)c1-c1ccc(S(=O)(=O)N2CCCC2)cc1`: the RP-LC retention time turned out to be 951 s.

Turning to `Cc1cc(NC(=O)c2cccc(NS(=O)(=O)c3ccc(F)cc3)c2)no1`, the RP-LC retention time was found to be 736 s.

As to `O=C(Cc1c(Sc2ccccc2)[nH]c2ccccc12)N1CCN(c2ccccn2)CC1`, the RP-LC retention time turned out to be 679 s.

With `O=C(CCC1CCCN(S(=O)(=O)c2ccccc2F)C1)NCc1cccs1` (stereo not given), the RP-LC retention time came to 908 s.

As to `CCOC(=O)c1c(C)[nH]c(C)c1S(=O)(=O)N1CCC(C(=O)N2CCn3c2nc2ccccc23)CC1`, the RP-LC retention time came to 725 s.

As for `COc1ccc(OC)c(CNC(=O)c2cc(-c3ccccc3)cn2C)c1`, the RP-LC retention time stood at 1020 s.

As for `CCOC(=O)c1ccccc1NC(=O)CSc1ccc(-c2ccccn2)nn1`, the RP-LC retention time was 906 s.

`CCCN1C(=O)c2cc(S(=O)(=O)NCc3ccccc3F)ccc2Oc2cccnc21` displayed an RP-LC retention time of 1030 s.

With `CCCCN(C)C(=O)C1CCCCc2nnc(C(C)C)n21` (stereo not given), the RP-LC retention time came out at 666 s.

For the compound `CCc1ccc(C2=C(C)C(N3CCCN(C(=O)NCCOC)CC3)=NS2(=O)=O)cc1`, the RP-LC retention time came out at 731 s.

For the compound `Cc1cc(C(N)=O)c(C)n1Cc1ccc(F)cc1`, the RP-LC retention time was 752 s.

Consider `CC(C)c1noc(-c2cc(=O)n(CC(=O)Nc3ccc4c(c3)OCO4)c3ccccc23)n1`, for which the RP-LC retention time amounted to 956 s.

`CCn1cc(C(=O)N2CCC(c3nnc(-c4ccco4)o3)CC2)c(=O)c2ccc(C)nc21` yielded an RP-LC retention time of 654 s.

Regarding `Cc1cccc(CNC(=O)C2CCN(Cc3cn(C)c4ccc(Cl)cc34)CC2)c1`, the RP-LC retention time was 757 s.

`COc1ccc(-c2csc3ncn(-n4c(C)ccc4C)c(=O)c23)cc1OC`: the RP-LC retention time is 905 s.

`CCn1c(=O)c(N2CCC(C(=O)NCCCN3CCCCC3C)CC2)nc2cccnc21` (stereo not given): the RP-LC retention time amounted to 632 s.

Compound `CC(C)Oc1ccc(CNC(=O)C2(C)CCCCC(=O)N2)cc1` (stereo not given) returned an RP-LC retention time of 710 s.

In the case of `COC(=O)c1ccc2c(=O)n(-c3ccc4c(c3)OCO4)c(N3CCC(C)CC3)nc2c1`, the RP-LC retention time is 1150 s.

Regarding `Cc1ccc(-c2nc(-c3cccc(-c4ccn[nH]4)c3)no2)cc1C`, the RP-LC retention time was 1150 s.

Take `Cc1ccc2c(NCc3ccc4c(c3)OCO4)c(C(=O)OC(C)C)cnc2n1`: the RP-LC retention time came out at 737 s.

The record behind these values is the METLIN SMRT retention time set (Domingo-Almenara et al. 2019).
